System: LG0703-F498-PDC complex spheroid growth
Test: Anticancer human tumor LG0703-F498-PDC patient-derived lung adenocarcinoma cell line growth inhibition [AhR]
Conditions: for IC50: curve of first compound; for viability, T/C: stronger effect = lower value
From the text: Multicellular complex tumor spheroid response to aryl hydrocarbon receptor antagonists in combination with a variety of drugs and investigational agents in selected tumor cell lines
The current study was undertaken to assess response to aryl hydrocarbon receptor antagonists in combination with standard-of-care drugs and investigational agents in solid tumor complex spheroid models. Complex spheroids include a stromal component modeled by human endothelial cells (HUVEC) and fibroblasts modeled by human mesenchymal stem cells (MSCs). The concentration ranges selected for each drug and investigational agent were based upon clinically achievable concentrations if the clinical Cmax of the agent was known.
Compounds. The drugs and investigational agents: BAY 2416964 (NSC825713), GNF351 (NSC835774), CH-223191 (NSC835775), CPI-455 (NSC825282), aza-TdCyd (NSC777586), decitabine (NSC127716), belinostat (NSC758774), entinostat (NSC756642), pevonedistat (NSC761192), tazemetostat (NSC777109), talazoparib (NSC765396), olaparib (NSC753686), selinexor (NSC780203), nedisertib (M3814, NSC802822), bortezomib (NSC756655), venetoclax (NSC766270), doxorubicin (NSC123127), elimusertib (BAY189344, NSC800525), ceralasertib (AZD6738, NSC777638), TAK-243 (NSC785004), alisertib (NSC759677), etoposide (NSC141540), topotecan (NSC609699), eribulin (NSC707389), gemcitabine (NSC613327), carboplatin (NSC241240), cisplatin (NSC119875), and SN-38 (NSC673596) were obtained from the National Cancer Institute (NCI) Developmental Therapeutics Program Chemical Repository (32). The FDA-approved anticancer drug set is available from the Developmental Therapeutics Program at https://dtp.cancer.gov/organization/dscb/obtaining/available plates.htm. […] The stock solutions were prepared in dimethyl sulfoxide (DMSO, Sigma-Aldrich, St. Louis, MO, cat. D2650), except for the platinum compounds which were prepared in saline (Quality Biological, Gaithersburg, MD, cat. 114-055-101), at 800-fold the tested concentration and stored at -70 degrees C prior to their use. All drugs and investigational agents were tested over a range starting from a high concentration at or near the clinical Cmax and decreasing in half-log increments. If the clinical Cmax for an agent had not been determined, the highest concentration tested was 10 microM (Table 1).
Cell Culture. All cells were maintained in an incubator at 37 degrees C and 5% CO2 with 95% humidity. The PDC lines were cultured according to standard operating procedures established by the NCI PDMR (https://pdmr.cancer.gov). Briefly, all PDCs were thawed and cultured in Matrigel-coated flasks prepared with a working solution of 1X Ham's F-12 nutrient mix, without supplementation (Invitrogen, Waltham, MA, cat. 11765054), 100 U/mL penicillin-streptomycin (Invitrogen, cat. 15140122), and 2.5% Matrigel (Corning Inc., Corning, NY, cat. 354248) for the first three passages. All PDCs were cultured in complete DMEM/F-12 media containing advanced DMEM/F-12 (Invitrogen, cat. 12634028), 4.9% defined fetal bovine serum, heat inactivated (HyClone Laboratories Inc., Logan, UT, cat. SH30070.03HI), 389 ng/mL hydrocortisone (Sigma-Aldrich, cat. H4001), 9.7 ng/mL human EGF recombinant protein (Invitrogen, cat. PHG0313), 23.4 microg/mL adenine (Sigma-Aldrich, cat. A2786), 97.3 U/mL penicillin-streptomycin (Invitrogen, cat. 15140122), 1.9 mM L-glutamine (Invitrogen, cat. 25030081), and 9.7 microM Y-27632 dihydrochloride (Tocris Bioscience, Bristol, United Kingdom, cat. 1254). The PDCs were cultured in complete DMEM/F12 media without 10 microM Y-27632 dihydrochloride for at least two passages prior to the screen. The established cell lines NCI-H1341 and […] were cultured in DMEM/F-12, HEPES (Invitrogen, cat. 11330032), 5% defined fetal bovine serum (HyClone Laboratories Inc., cat. SH30070.03), ITS premix universal culture supplement [insulin (5 microg/mL), transferrin (5 microg/mL), and selenious acid (5 ng/mL)] […]

[1] = second compound 0.1 µM, first compound 0.0316 µM
[2] = second compound 0.1 µM, first compound 0.1 µM
[3] = second compound 0.1 µM, first compound 0.316 µM
[4] = second compound 0.1 µM, first compound 1 µM
[5] = second compound 0.1 µM, first compound 3.16 µM
[6] = second compound 0.1 µM, first compound 10 µM
[7] = second compound 0.316 µM, first compound 0.0316 µM
[8] = second compound 0.316 µM, first compound 0.1 µM
[9] = second compound 0.316 µM, first compound 0.316 µM
[10] = second compound 0.316 µM, first compound 1 µM
[11] = second compound 0.316 µM, first compound 3.16 µM
[12] = second compound 0.316 µM, first compound 10 µM
[13] = second compound 1 µM, first compound 0.0316 µM
[14] = second compound 1 µM, first compound 0.1 µM
[15] = second compound 1 µM, first compound 0.316 µM
[16] = second compound 1 µM, first compound 1 µM
[17] = second compound 1 µM, first compound 3.16 µM
[18] = second compound 1 µM, first compound 10 µM
[19] = second compound 3.16 µM, first compound 0.0316 µM
[20] = second compound 3.16 µM, first compound 0.1 µM
[21] = second compound 3.16 µM, first compound 0.316 µM
[22] = second compound 3.16 µM, first compound 1 µM
[23] = second compound 3.16 µM, first compound 3.16 µM
[24] = second compound 3.16 µM, first compound 10 µM
[25] = second compound 10 µM, first compound 0.0316 µM
[26] = second compound 10 µM, first compound 0.1 µM
[27] = second compound 10 µM, first compound 0.316 µM
[28] = second compound 10 µM, first compound 1 µM
[29] = second compound 10 µM, first compound 3.16 µM
[30] = second compound 10 µM, first compound 10 µM
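Further: luminescence taken as a proxy for viable cell amount.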
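Wherever viability, T/C is given: percent of DMSO vehicle control where 100% means growth equal to vehicle.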

Work on `CC(C)CC(NC(=O)C(Cc1ccccc1)NC(=O)c1cnccn1)B(O)O` (stereo not given) + CC(CO)NC(=O)c1cc(-c2ccc(Cl)cc2)nn(-c2cnn(C)c2)c1=O yielded an IC50 (second compound 0.1 µM) of 2.38 nM, an IC50 (second compound 0.316 µM) of 2.52 nM and an IC50 (second compound 1 µM) of 2.12 nM. It also gave an IC50 (second compound 3.16 µM) of 2.09 nM, an IC50 (second compound 10 µM) of 1.88 nM and a viability, T/C (second compound 0.1 µM, first compound 0.000949 µM) of 76.8%. For the same molecule, the viability, T/C (second compound 0.1 µM, first compound 0.003 µM) was 43.2%, the viability, T/C (second compound 0.1 µM, first compound 0.00949 µM) was 1.95% and the viability, T/C (second compound 0.1 µM, first compound 0.03 µM) was 0.49%. The viability, T/C (second compound 0.1 µM, first compound 0.0949 µM) was 0.12%, the viability, T/C (second compound 0.1 µM, first compound 0.3 µM) was 0.2% and the viability, T/C (second compound 0.316 µM, first compound 0.000949 µM) was 80%. It also gave a viability, T/C (second compound 0.316 µM, first compound 0.003 µM) of 44.7%, a viability, T/C (second compound 0.316 µM, first compound 0.00949 µM) of 3.04% and a viability, T/C (second compound 0.316 µM, first compound 0.03 µM) of 0.34%. The viability, T/C (second compound 0.316 µM, first compound 0.0949 µM) was 0.17%, the viability, T/C (second compound 0.316 µM, first compound 0.3 µM) was 0.17% and the viability, T/C (second compound 1 µM, first compound 0.000949 µM) was 75.9%. For the same molecule, the viability, T/C (second compound 1 µM, first compound 0.003 µM) was 38.8%, the viability, T/C (second compound 1 µM, first compound 0.00949 µM) was 2.08% and the viability, T/C (second compound 1 µM, first compound 0.03 µM) was 0.36%. It also gave a viability, T/C (second compound 1 µM, first compound 0.0949 µM) of 1.04%, a viability, T/C (second compound 1 µM, first compound 0.3 µM) of 0.16% and a viability, T/C (second compound 3.16 µM, first compound 0.000949 µM) of 78%. For the same molecule, the viability, T/C (second compound 3.16 µM, first compound 0.003 µM) was 37.3%, the viability, T/C (second compound 3.16 µM, first compound 0.00949 µM) was 1.6% and the viability, T/C (second compound 3.16 µM, first compound 0.03 µM) was 0.13%. For the same molecule, the viability, T/C (second compound 3.16 µM, first compound 0.0949 µM) was 0.63%, the viability, T/C (second compound 3.16 µM, first compound 0.3 µM) was 1.52% and the viability, T/C (second compound 10 µM, first compound 0.000949 µM) was 71.2%. The viability, T/C (second compound 10 µM, first compound 0.003 µM) was 35.5%, the viability, T/C (second compound 10 µM, first compound 0.00949 µM) was 1.37% and the viability, T/C (second compound 10 µM, first compound 0.03 µM) was 0.23%. For the same molecule, the viability, T/C (second compound 10 µM, first compound 0.0949 µM) was 0.25% and the viability, T/C (second compound 10 µM, first compound 0.3 µM) was 0.21%.

Molecule `Nc1ccccc1NC(=O)c1ccc(CNC(=O)OCc2cccnc2)cc1` + CC(CO)NC(=O)c1cc(-c2ccc(Cl)cc2)nn(-c2cnn(C)c2)c1=O has an IC50 (second compound 0.1 µM) of 401 nM, an IC50 (second compound 0.316 µM) of 428 nM and an IC50 (second compound 1 µM) of 461 nM. The IC50 (second compound 3.16 µM) was 413 nM, the IC50 (second compound 10 µM) was 335 nM and the viability, T/C [1] was 82.4%. For the same molecule, the viability, T/C [2] was 86.8%, the viability, T/C [3] was 56.2% and the viability, T/C [4] was 19.3%. The viability, T/C [5] was 2.71%, the viability, T/C [6] was 0.45% and the viability, T/C [7] was 72.8%. For the same molecule, the viability, T/C [8] was 71.6%, the viability, T/C [9] was 59.7% and the viability, T/C [10] was 22.6%. The viability, T/C [11] was 2.65%, the viability, T/C [12] was 0.63% and the viability, T/C [13] was 77.8%. It also gave a viability, T/C [14] of 79.9%, a viability, T/C [15] of 64.5% and a viability, T/C [16] of 19.6%. The viability, T/C [17] was 3.74%, the viability, T/C [18] was 0.67% and the viability, T/C [19] was 74.3%. It also gave a viability, T/C [20] of 71.6%, a viability, T/C [21] of 59.3% and a viability, T/C [22] of 19.7%. It also gave a viability, T/C [23] of 2.42%, a viability, T/C [24] of 0.89% and a viability, T/C [25] of 70.4%. The viability, T/C [26] was 77%, the viability, T/C [27] was 48.1% and the viability, T/C [28] was 21.8%. It also gave a viability, T/C [29] of 3.12% and a viability, T/C [30] of 1.17%.

In the case of `O=C(C=Cc1cccc(S(=O)(=O)Nc2ccccc2)c1)NO` + CC(CO)NC(=O)c1cc(-c2ccc(Cl)cc2)nn(-c2cnn(C)c2)c1=O, the IC50 (second compound 0.1 µM) is reported as 607 nM, the IC50 (second compound 0.316 µM) is reported as 636 nM and the IC50 (second compound 1 µM) is reported as 667 nM. For the same molecule, the IC50 (second compound 3.16 µM) was 690 nM, the IC50 (second compound 10 µM) was 727 nM and the viability, T/C [1] was 106%. The viability, T/C [2] was 112%, the viability, T/C [3] was 77.3% and the viability, T/C [4] was 28.5%. It also gave a viability, T/C [5] of 7%, a viability, T/C [6] of 1.6% and a viability, T/C [7] of 105%. For the same molecule, the viability, T/C [8] was 101%, the viability, T/C [9] was 77% and the viability, T/C [10] was 32.4%. It also gave a viability, T/C [11] of 7.34%, a viability, T/C [12] of 1.04% and a viability, T/C [13] of 102%. For the same molecule, the viability, T/C [14] was 106%, the viability, T/C [15] was 77.8% and the viability, T/C [16] was 34.6%. The viability, T/C [17] was 8.18%, the viability, T/C [18] was 1.73% and the viability, T/C [19] was 105%. It also gave a viability, T/C [20] of 108%, a viability, T/C [21] of 74.4% and a viability, T/C [22] of 39%. The viability, T/C [23] was 7.73%, the viability, T/C [24] was 1.63% and the viability, T/C [25] was 101%. It also gave a viability, T/C [26] of 121%, a viability, T/C [27] of 81.8% and a viability, T/C [28] of 37.6%. It also gave a viability, T/C [29] of 8.76% and a viability, T/C [30] of 1.23%.
